# Patent publication US20220241311A1, “METHODS AND MATERIALS FOR TREATING GLYCOSYLATION DISORDERS” (priority 2018, published 2022)
# Tested on: PGM1-defective patient fibroblasts
# Experiment: Nucleotide sugar analysis (UPLC-PDA), patient fibroblasts
# Assay type: cell-based, human
# Description: Levels of nucleotides and sugar-nucleotides were determined. Fibroblast cell pellets (5×10^6 cells per sample) were lysed and extracted in 0.37 ml ice-cold 0.5 M perchloric acid with sonication on ice. Samples were neutralized with 86 μl ice-cold neutralization solution (2.5 M KOH in 1.5 M K2HPO4) after 5 minute sonication. To remove precipitated potassium perchlorate neutralized samples were centrifuged at 4° C. and 16,400×g for 10 minutes and filtered with 0.2 μm filters. Nucleotides and sugar-nucleotides were immediately analyzed and separated via ion-pair reverse phased chromatography using an Acquity HSS T3 column (150 mm×2.1 mm, 1.7 μm, Waters) connected to an Acquity H-class UPLC system. The column temperature was set to 40° C. and the column was equilibrated with solvent A (50 mM potassium phosphate buffer, 8 mM tetrabutylammonium hydrogensulfate, pH 6.5) at a flow rate of 0.45 ml min^−1. Autosampler temperature was maintained at 6° C. […] Nucleotides were detected by Acquity PDA detector (Waters, 260 nm) and quantified using ultrapure standards (Sigma). Data acquisition and processing was performed with the Empower3 software suite (Waters).
# Nucleotide sugars were measured with serum starvation during 18 hours of culturing and without of serum starvation and applying normal media.
# [1] = Patient 8, 1 d + 0.75 mM Galactose
# [2] = Patient 8, 4 d + 0.75 mM Galactose
# [3] = listed as 'i e' (patient cell-line 2013Y), 1 d 2 mM Galactose
# [4] = listed as 'i e' (patient cell-line 2013Y), 1 d + 0.75 mM Galactose
# [5] = listed as 'i e' (patient cell-line 2013Y), 4 d 2 mM Galactose
# [6] = listed as 'i e' (patient cell-line 2013Y), 4 d + 0.75 mM Galactose
compound,measurement,setting,value
"O=C[C@H](O)[C@@H](O)[C@@H](O)[C@H](O)CO [D-gal, D-galactose]",ADP,"Patient 8, 1 d 2 mM Galactose",510.69 pmol/mio cells
same,AMP,"Patient 8, 1 d 2 mM Galactose",15.28 pmol/mio cells
same,ATP,"Patient 8, 1 d 2 mM Galactose",2089.09 pmol/mio cells
same,CTP,"Patient 8, 1 d 2 mM Galactose",274.92 pmol/mio cells
same,GDP,"Patient 8, 1 d 2 mM Galactose",213.67 pmol/mio cells
same,GDP-Man,"Patient 8, 1 d 2 mM Galactose",29.66 pmol/mio cells
same,GTP,"Patient 8, 1 d 2 mM Galactose",434.86 pmol/mio cells
same,UDP,"Patient 8, 1 d 2 mM Galactose",153.67 pmol/mio cells
same,UDP-Gal,"Patient 8, 1 d 2 mM Galactose",398.68 pmol/mio cells
same,UDP-Glc,"Patient 8, 1 d 2 mM Galactose",613.75 pmol/mio cells
same,UDP-GlcNAc,"Patient 8, 1 d 2 mM Galactose",31.04 pmol/mio cells
same,UTP,"Patient 8, 1 d 2 mM Galactose",1183.32 pmol/mio cells
same,cAMP,"Patient 8, 1 d 2 mM Galactose",75.29 pmol/mio cells
same,ADP,[1],429.27 pmol/mio cells
same,AMP,[1],7.31 pmol/mio cells
same,ATP,[1],1855.71 pmol/mio cells
same,CTP,[1],222.68 pmol/mio cells
same,GDP,[1],188.04 pmol/mio cells
same,GDP-Man,[1],31.71 pmol/mio cells
same,GTP,[1],387.39 pmol/mio cells
same,UDP,[1],120.53 pmol/mio cells
same,UDP-Gal,[1],273.66 pmol/mio cells
same,UDP-Glc,[1],445.76 pmol/mio cells
same,UDP-GlcNAc,[1],40.27 pmol/mio cells
same,UTP,[1],1037.93 pmol/mio cells
same,cAMP,[1],72.84 pmol/mio cells
same,ADP,"Patient 8, 4 d 2 mM Galactose",695.56 pmol/mio cells
same,AMP,"Patient 8, 4 d 2 mM Galactose",22.78 pmol/mio cells
same,ATP,"Patient 8, 4 d 2 mM Galactose",3192.45 pmol/mio cells
same,CTP,"Patient 8, 4 d 2 mM Galactose",282.74 pmol/mio cells
same,GDP,"Patient 8, 4 d 2 mM Galactose",260.45 pmol/mio cells
same,GDP-Man,"Patient 8, 4 d 2 mM Galactose",95.43 pmol/mio cells
same,GTP,"Patient 8, 4 d 2 mM Galactose",659.21 pmol/mio cells
same,UDP,"Patient 8, 4 d 2 mM Galactose",169.63 pmol/mio cells
same,UDP-Gal,"Patient 8, 4 d 2 mM Galactose",315.21 pmol/mio cells
same,UDP-Glc,"Patient 8, 4 d 2 mM Galactose",493.54 pmol/mio cells
same,UDP-GlcNAc,"Patient 8, 4 d 2 mM Galactose",56.13 pmol/mio cells
same,UTP,"Patient 8, 4 d 2 mM Galactose",1293.27 pmol/mio cells
same,cAMP,"Patient 8, 4 d 2 mM Galactose",88.40 pmol/mio cells
same,ADP,[2],655.53 pmol/mio cells
same,AMP,[2],18.87 pmol/mio cells
same,ATP,[2],3363.84 pmol/mio cells
same,CTP,[2],274.92 pmol/mio cells
same,GDP,[2],277.54 pmol/mio cells
same,GDP-Man,[2],101.37 pmol/mio cells
same,GTP,[2],682.40 pmol/mio cells
same,UDP,[2],174.89 pmol/mio cells
same,UDP-Gal,[2],283.69 pmol/mio cells
same,UDP-Glc,[2],442.43 pmol/mio cells
same,UDP-GlcNAc,[2],6.33 pmol/mio cells
same,UTP,[2],1364.91 pmol/mio cells
same,cAMP,[2],74.47 pmol/mio cells
same,UDP-Glc and UDP-Gal levels,"all patient cell lines, 4 days of D-gal supplementation",remained significantly increased
same,ADP,[3],318.92 pmol/mio cells
same,AMP,[3],2.63 pmol/mio cells
same,ATP,[3],2918.66 pmol/mio cells
same,CTP,[3],295.58 pmol/mio cells
same,GDP,[3],186.06 pmol/mio cells
same,GDP-Man,[3],56.30 pmol/mio cells
same,GTP,[3],566.56 pmol/mio cells
same,UDP,[3],42.70 pmol/mio cells
same,UDP-Gal,[3],503.56 pmol/mio cells
same,UDP-Glc,[3],637.55 pmol/mio cells
same,UDP-GlcNAc,[3],211.57 pmol/mio cells
same,UTP,[3],981.09 pmol/mio cells
same,cAMP,[3],70.73 pmol/mio cells
same,ADP,[4],407.13 pmol/mio cells
same,AMP,[4],8.23 pmol/mio cells
same,ATP,[4],3422.01 pmol/mio cells
same,CTP,[4],339.16 pmol/mio cells
same,GDP,[4],187.52 pmol/mio cells
same,GDP-Man,[4],107.59 pmol/mio cells
same,GTP,[4],681.74 pmol/mio cells
same,UDP,[4],115.84 pmol/mio cells
same,UDP-Gal,[4],431.17 pmol/mio cells
same,UDP-Glc,[4],703.36 pmol/mio cells
same,UDP-GlcNAc,[4],21.89 pmol/mio cells
same,UTP,[4],1494.83 pmol/mio cells
same,cAMP,[4],91.16 pmol/mio cells
same,ADP,[5],382.44 pmol/mio cells
same,AMP,[5],16.17 pmol/mio cells
same,ATP,[5],3460.76 pmol/mio cells
same,CTP,[5],241.06 pmol/mio cells
same,GDP,[5],242.68 pmol/mio cells
same,GDP-Man,[5],147.29 pmol/mio cells
same,GTP,[5],681.71 pmol/mio cells
same,UDP,[5],43.26 pmol/mio cells
same,UDP-Gal,[5],394.31 pmol/mio cells
same,UDP-Glc,[5],616.89 pmol/mio cells
same,UTP,[5],1316.26 pmol/mio cells
same,cAMP,[5],98.61 pmol/mio cells
same,ADP,[6],349.53 pmol/mio cells
same,AMP,[6],3.85 pmol/mio cells
same,ATP,[6],3484.52 pmol/mio cells
same,CTP,[6],280.34 pmol/mio cells
same,GDP,[6],225.14 pmol/mio cells
same,GDP-Man,[6],151.18 pmol/mio cells
same,GTP,[6],686.35 pmol/mio cells
same,UDP,[6],39.53 pmol/mio cells
same,UDP-Gal,[6],290.54 pmol/mio cells
same,UDP-Glc,[6],487.94 pmol/mio cells
same,UDP-GlcNAc,[6],354.84 pmol/mio cells
same,UTP,[6],944.20 pmol/mio cells
same,cAMP,[6],68.63 pmol/mio cells
